Results from US7135466B2 (Kirin Beer Kabushiki Kaisha, priority 1999, dated 2006).
Where two headings read alike, the source gives them in different places. Values belong to the compound of their own block, whether it stands above or below them.

Columns and labels:
c-kit = target: T1, c-kit (Homo sapiens, UniProt P10721); assay: Inhibitory activity against c-kit autophosphorylation (MO7e cells, h-SCF); assay type: cell-based; conditions: MO7e cells, read-out: c-kit IC50
T1 construct: MO7e (human megakaryocytic leukemia cell line) which had been arrested for 20 hr; endogenous in cells; host or cells: MO7e human megakaryocytic leukemia cell line
T1 sequence (P10721 26-976): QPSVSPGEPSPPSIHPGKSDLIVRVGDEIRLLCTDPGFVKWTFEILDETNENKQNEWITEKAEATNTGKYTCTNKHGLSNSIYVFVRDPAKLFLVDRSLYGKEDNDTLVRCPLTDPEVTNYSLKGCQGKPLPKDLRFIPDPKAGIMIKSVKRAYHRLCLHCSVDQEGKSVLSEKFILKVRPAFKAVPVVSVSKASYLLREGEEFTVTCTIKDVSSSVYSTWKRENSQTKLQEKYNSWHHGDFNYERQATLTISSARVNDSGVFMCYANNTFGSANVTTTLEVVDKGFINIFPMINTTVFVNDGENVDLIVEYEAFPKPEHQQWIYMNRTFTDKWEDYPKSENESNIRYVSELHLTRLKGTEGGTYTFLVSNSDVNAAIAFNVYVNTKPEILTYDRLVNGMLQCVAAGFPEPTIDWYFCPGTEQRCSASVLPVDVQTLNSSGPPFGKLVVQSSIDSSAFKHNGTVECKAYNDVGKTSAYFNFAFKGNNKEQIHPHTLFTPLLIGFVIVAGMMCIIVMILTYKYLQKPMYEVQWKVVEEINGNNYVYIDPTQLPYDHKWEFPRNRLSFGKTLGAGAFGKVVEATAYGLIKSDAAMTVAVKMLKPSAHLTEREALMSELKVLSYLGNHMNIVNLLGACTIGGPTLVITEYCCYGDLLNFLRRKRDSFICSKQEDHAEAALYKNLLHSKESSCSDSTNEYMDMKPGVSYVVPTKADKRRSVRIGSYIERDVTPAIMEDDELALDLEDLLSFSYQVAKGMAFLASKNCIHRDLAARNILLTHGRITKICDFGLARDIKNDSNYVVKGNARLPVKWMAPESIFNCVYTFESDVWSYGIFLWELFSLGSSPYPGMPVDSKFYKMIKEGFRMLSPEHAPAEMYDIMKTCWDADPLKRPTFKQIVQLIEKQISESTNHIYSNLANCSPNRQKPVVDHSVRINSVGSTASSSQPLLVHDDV
Outline: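 First, human megakaryocytic leukemia MO7e cells arrested 20 hr receive compound for one hour. Second, SCF stimulation (50 ng/ml) runs 5 min, after which cells are solubilized. Third, tyrosine-phosphorylated c-kit in the lysate is quantified by sandwich ELISA with absorbance at 450 nm.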

PDGF-Ra = target: T2, PDGF-Ra (Homo sapiens, UniProt P16234); assay: Inhibitory activity against PDGF-Ra phosphorylation by PDGF-AA stimulation using G292; assay type: cell-based; conditions: > means inhibition at indicated concentration not more than 50%, < and << not less than 50%, read-out: PDGF (E) IC50
T2 construct: host or cells: G-292 human osteosarcoma cells
T2 sequence (P16234 24-1089): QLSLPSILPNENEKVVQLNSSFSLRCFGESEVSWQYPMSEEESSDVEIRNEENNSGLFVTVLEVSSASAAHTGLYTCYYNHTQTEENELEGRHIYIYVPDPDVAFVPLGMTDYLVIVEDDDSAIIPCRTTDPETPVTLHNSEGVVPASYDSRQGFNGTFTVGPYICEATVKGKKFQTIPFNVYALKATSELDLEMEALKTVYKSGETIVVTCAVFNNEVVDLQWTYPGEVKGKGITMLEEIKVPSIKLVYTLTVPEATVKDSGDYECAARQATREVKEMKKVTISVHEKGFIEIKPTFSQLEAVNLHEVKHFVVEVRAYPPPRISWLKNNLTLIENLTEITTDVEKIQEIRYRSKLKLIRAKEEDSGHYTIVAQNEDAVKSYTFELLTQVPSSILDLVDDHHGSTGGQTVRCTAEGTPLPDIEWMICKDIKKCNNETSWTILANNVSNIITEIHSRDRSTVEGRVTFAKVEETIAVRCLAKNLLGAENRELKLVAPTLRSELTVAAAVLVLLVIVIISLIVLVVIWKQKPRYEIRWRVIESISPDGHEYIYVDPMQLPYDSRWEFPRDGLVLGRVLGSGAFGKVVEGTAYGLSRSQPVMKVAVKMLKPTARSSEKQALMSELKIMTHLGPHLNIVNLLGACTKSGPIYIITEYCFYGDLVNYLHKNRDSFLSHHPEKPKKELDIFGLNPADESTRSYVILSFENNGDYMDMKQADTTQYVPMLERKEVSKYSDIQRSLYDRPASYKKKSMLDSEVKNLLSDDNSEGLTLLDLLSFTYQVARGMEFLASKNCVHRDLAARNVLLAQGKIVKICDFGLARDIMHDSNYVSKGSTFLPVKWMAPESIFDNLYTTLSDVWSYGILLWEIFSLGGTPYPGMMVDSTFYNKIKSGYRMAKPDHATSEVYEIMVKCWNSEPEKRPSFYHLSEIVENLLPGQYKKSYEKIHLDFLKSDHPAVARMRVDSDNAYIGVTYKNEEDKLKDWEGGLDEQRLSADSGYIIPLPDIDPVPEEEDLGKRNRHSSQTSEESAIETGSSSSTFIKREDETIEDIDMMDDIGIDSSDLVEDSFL
Outline: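 In G-292 osteosarcoma cells kept overnight in 0.1% FBS, compound exposure (1 hr, 37 °C) preceded PDGF-AA stimulation at 50 ng/ml for 5 min; receptor phosphotyrosine was then detected by PY-20 capture ELISA.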

Compound: CCCCCC(C)OC(=O)Nc1ccc(Oc2ccnc3cc(OC)c(OC)cc23)c(C)c1C (stereo not shown) [Example 413, 1-Methylhexyl N-{4-[(6,7-dimethoxy-4-quinolyl)oxy]-2,3-dimethylphenyl}carbamate]
IC50 (c-kit; 50 ng/ml h-SCF): 50 nM
IC50 (PDGF-Ra): 39 nM

Compound: COc1cccc(OCCCOC(=O)Nc2cc(C)c(Oc3ccnc4cc(OC)c(OC)cc34)cc2C)c1 [Example 163, 3-(3-Methoxyphenoxy)propyl N-{4-[(6,7-dimethoxy-4-quinolyl)oxy]-2,5-dimethylphenyl}carbamate]
IC50 (c-kit; h-SCF 50 ng/ml): 185 nM
IC50 (PDGF-Ra; Pharmacological Test Example 1): < 10 nM

Compound: 1-(3-Chlorophenyl)ethyl N-{4-((6,7-dimethoxy-4-quinazolinyl)oxy)phenyl}carbamate [Example 3]
IC50 (c-kit; h-SCF 50 ng/ml): 173 nM
IC50 (PDGF-Ra; Pharmacological Test Example 1): < 10 nM

Compound: COc1cc2nccc(Oc3ccc(NC(=S)NC(=O)CC4CCCCC4)cc3Cl)c2cc1OC [Example 704, N-{3-Chloro-4-[(6,7-dimethoxy-4-quinolyl)oxy]phenyl}-N′-(2-cyclohexylacetyl)thiourea]
IC50 (c-kit; 50 ng/ml h-SCF): 177 nM
IC50 (PDGF-Ra): 16 nM

Compound: COc1cc2ncnc(Oc3ccc(NC(=O)OCc4ccc(C(F)(F)F)cc4)cc3)c2cc1OC [Example 24, 4-(Trifluoromethyl)benzyl N-{4-[(6,7-dimethoxy-4-quinazolinyl)oxy]phenyl}carbamate]
IC50 (c-kit; h-SCF 50 ng/ml): 129 nM
IC50 (PDGF-Ra; Pharmacological Test Example 1): < 10 nM

Compound: CCCCc1ccc(OC(=O)Nc2ccc(Oc3ccnc4cc(OC)c(OC)cc34)cc2)cc1 [Example 257, 4-Butylphenyl N-{4-[(6,7-dimethoxy-4-quinolyl)oxy]phenyl}carbamate]
IC50 (c-kit; h-SCF 50 ng/ml): 22 nM
IC50 (PDGF-Ra; Pharmacological Test Example 1): 6 nM

Compound: COc1cc2ncnc(Oc3ccc(NC(=O)OCCCOc4ccccc4Cl)c(Cl)c3)c2cc1OC [Example 20, 3-(2-Chlorophenoxy)propyl N-{2-chloro-4-[(6,7-dimethoxy-4-quinazolinyl)oxy]phenyl}carbamate]
IC50 (c-kit; h-SCF 50 ng/ml): 109 nM
IC50 (PDGF-Ra; Pharmacological Test Example 1): < 10 nM

Results, then the compound that gave them:

IC50 (c-kit; h-SCF 50 ng/ml): 807 nM
IC50 (PDGF-Ra; Pharmacological Test Example 1): 35 nM
Compound: COc1cc2nccc(Oc3ccc(NC(=O)OC(C)c4cccc(N(C)C)c4)cc3)c2cc1OC (stereo not shown) [Example 199, 1-[3-(Dimethylamino)phenyl]ethyl N-{4-[(6,7-dimethoxy-4-quinolyl)oxy]phenyl}carbamate]

IC50 (c-kit; h-SCF 50 ng/ml): 413 nM
IC50 (PDGF-Ra; Pharmacological Test Example 1): 16 nM
Compound: CCCC(CC)OC(=O)Nc1cc(C)c(Oc2ccnc3cc(OC)c(OC)cc23)cc1C (stereo not shown) [Example 276, 1-Ethylbutyl N-{4-[(6,7-dimethoxy-4-quinolyl)oxy]-2,5-dimethylphenyl}carbamate]

IC50 (c-kit; 50 ng/ml h-SCF): 632 nM
IC50 (PDGF-Ra): 90 nM
Compound: CCN(CC)CCNC(=O)Nc1cc(C)c(Oc2ccnc3cc(OC)c(OC)cc23)cc1C [Example 623, N-[2-(Diethylamino)ethyl]-N′-{4-[(6,7-dimethoxy-4-quinolyl)oxy]-2,5-dimethylphenyl}urea]

IC50 (c-kit; h-SCF 50 ng/ml): 111 nM
IC50 (PDGF-Ra; Pharmacological Test Example 1): 6 nM
Compound: COc1cc2nccc(Oc3ccc(NC(=O)OCc4ccc(C)cc4)cc3)c2cc1OC [Example 252, 4-Methylbenzyl N-{4-[(6,7-dimethoxy-4-quinolyl)oxy]phenyl}carbamate]

IC50 (c-kit; h-SCF 50 ng/ml): 118 nM
IC50 (PDGF-Ra; Pharmacological Test Example 1): < 10 nM
Compound: COc1cc2nccc(Oc3ccc(NC(=O)OCCCOc4ccc(Cl)cc4)c(C)c3C)c2cc1OC [Example 28, 3-(4-Chlorophenoxy)propyl N-{4-[(6,7-dimethoxy-4-quinolyl)oxy]-2,3-dimethylphenyl}carbamate]

IC50 (c-kit; h-SCF 50 ng/ml): 261 nM
IC50 (PDGF-Ra; Pharmacological Test Example 1): < 10 nM
Compound: COc1cc2ncnc(Oc3ccc(NC(=O)OCc4ccc(C(C)(C)C)cc4)cc3)c2cc1OC [Example 60, 4-(Tert-butyl)benzyl N-{4-[(6,7-dimethoxy-4-quinazolinyl)oxy]phenyl}carbamate]

IC50 (c-kit; h-SCF 50 ng/ml): 44 nM
IC50 (PDGF-Ra; Pharmacological Test Example 1): < 10 nM
Compound: COc1cc2nccc(Oc3ccc(NC(=O)OCCCOc4ccccc4Cl)cc3)c2cc1OC [Example 26, 3-(2-Chlorophenoxy)propyl N-{4-[(6,7-dimethoxy-4-quinolyl)oxy]phenyl}carbamate]
